Where two headings read alike, the source gives them in different places.
Experiments:
Test in all cases: KINOMEscan (ScanMAX) kinase profiling
Assay type in all cases: binding
panel of 468 kinases [1] = molecular target: T1, panel of 468 kinases (Homo sapiens, UniProt P00519, F317L); conditions: 1 μM, read-out: % control
T1 construct: purchased KINOMEscan (ScanMAX) service

panel of 468 kinases [2] = molecular target: T2, panel of 468 kinases (Homo sapiens, UniProt P07332); conditions: FES; 1 μM; read-out: % control
T2 construct: purchased KINOMEscan (ScanMAX) service
T2 sequence (P07332 whole entry): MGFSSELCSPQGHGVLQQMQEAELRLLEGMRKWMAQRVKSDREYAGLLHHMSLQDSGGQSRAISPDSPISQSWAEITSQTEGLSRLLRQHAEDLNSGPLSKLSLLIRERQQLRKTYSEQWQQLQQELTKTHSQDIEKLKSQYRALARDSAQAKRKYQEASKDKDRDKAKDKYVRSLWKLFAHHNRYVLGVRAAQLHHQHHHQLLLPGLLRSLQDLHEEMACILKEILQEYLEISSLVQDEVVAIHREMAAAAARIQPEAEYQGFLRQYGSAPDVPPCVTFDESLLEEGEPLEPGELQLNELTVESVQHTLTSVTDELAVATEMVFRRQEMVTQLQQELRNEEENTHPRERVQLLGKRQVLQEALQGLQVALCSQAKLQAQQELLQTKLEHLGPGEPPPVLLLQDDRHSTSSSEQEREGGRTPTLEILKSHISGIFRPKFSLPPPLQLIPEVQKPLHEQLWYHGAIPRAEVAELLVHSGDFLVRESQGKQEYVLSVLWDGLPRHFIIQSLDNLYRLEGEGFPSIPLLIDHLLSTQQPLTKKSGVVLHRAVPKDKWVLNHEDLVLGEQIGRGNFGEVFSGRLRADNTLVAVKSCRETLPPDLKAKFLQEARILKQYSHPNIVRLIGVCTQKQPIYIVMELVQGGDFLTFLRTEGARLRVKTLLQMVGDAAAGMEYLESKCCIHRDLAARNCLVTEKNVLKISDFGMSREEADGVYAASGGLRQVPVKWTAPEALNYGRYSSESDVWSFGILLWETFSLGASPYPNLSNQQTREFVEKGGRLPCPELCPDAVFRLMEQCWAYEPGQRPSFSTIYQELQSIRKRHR

panel of 468 kinases [3] = molecular target: T3, panel of 468 kinases (Homo sapiens, UniProt P10721, V559D); conditions: KIT(V559D); 1 μM; read-out: % control
T3 construct: purchased KINOMEscan (ScanMAX) service
T3 sequence (P10721 26-976 V559D): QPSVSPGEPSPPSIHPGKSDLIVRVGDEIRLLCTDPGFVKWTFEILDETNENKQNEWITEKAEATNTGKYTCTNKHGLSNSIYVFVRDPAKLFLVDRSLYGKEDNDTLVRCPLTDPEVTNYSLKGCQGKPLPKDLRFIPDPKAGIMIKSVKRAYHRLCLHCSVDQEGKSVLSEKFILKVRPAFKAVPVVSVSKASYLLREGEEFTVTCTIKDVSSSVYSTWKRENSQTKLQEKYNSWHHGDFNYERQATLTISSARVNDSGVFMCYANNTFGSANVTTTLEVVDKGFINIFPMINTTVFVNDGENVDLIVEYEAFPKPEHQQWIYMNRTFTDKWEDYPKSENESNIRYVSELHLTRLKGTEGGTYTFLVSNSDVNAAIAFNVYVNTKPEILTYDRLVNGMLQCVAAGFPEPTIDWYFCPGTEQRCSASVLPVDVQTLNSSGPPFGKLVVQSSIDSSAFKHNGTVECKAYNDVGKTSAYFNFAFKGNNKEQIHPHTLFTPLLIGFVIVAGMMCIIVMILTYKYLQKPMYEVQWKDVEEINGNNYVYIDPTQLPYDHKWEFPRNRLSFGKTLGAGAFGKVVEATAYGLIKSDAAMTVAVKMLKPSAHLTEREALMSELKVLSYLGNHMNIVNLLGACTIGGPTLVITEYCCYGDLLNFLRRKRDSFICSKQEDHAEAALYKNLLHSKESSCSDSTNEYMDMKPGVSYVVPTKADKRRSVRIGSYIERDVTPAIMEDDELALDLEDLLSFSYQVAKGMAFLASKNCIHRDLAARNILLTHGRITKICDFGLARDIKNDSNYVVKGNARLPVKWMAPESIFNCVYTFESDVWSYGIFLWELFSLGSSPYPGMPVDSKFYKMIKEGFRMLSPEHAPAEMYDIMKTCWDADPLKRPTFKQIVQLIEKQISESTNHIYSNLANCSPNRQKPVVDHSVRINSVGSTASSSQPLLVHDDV

panel of 468 kinases [4] = molecular target: T4, panel of 468 kinases (Homo sapiens, UniProt P28482); conditions: ERK2; 1 μM; read-out: % control
T4 construct: purchased KINOMEscan (ScanMAX) service
T4 sequence (P28482 whole entry): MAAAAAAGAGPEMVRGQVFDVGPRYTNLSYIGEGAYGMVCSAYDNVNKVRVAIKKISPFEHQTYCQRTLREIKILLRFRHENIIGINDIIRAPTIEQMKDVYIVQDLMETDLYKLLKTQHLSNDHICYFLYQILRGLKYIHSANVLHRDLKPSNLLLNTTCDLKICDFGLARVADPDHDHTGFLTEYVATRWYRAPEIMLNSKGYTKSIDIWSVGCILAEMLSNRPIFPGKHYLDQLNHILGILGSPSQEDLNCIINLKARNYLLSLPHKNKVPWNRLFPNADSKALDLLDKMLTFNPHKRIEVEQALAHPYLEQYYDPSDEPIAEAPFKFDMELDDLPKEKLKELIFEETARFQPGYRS

panel of 468 kinases [5] = molecular target: T5, panel of 468 kinases (Homo sapiens, UniProt P54753); conditions: EPHB3; 1 μM; read-out: % control
T5 construct: purchased KINOMEscan (ScanMAX) service
T5 sequence (P54753 34-998): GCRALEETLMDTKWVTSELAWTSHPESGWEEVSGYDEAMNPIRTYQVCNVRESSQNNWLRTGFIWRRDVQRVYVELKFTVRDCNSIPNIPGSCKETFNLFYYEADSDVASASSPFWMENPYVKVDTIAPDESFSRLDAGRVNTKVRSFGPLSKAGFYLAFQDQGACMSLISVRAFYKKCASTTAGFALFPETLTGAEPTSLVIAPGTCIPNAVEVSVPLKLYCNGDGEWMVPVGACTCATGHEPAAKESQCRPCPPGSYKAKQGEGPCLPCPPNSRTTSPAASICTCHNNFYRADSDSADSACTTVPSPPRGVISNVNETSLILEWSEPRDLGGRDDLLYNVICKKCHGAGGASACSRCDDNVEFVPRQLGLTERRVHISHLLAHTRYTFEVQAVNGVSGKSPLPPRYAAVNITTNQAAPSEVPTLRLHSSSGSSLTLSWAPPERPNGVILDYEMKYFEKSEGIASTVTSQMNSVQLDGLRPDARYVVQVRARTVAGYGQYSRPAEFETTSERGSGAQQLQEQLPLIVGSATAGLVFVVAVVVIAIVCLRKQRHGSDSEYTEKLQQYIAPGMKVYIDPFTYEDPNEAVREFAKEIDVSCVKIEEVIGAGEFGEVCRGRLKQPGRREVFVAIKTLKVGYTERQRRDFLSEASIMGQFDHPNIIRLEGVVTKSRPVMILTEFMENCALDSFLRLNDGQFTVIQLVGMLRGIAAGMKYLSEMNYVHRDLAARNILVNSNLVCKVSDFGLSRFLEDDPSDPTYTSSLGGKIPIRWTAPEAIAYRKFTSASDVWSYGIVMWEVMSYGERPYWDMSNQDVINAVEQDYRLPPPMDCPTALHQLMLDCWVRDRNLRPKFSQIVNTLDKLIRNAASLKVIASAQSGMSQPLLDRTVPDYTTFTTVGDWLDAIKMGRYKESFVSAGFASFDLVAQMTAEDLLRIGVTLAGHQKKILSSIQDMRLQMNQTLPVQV

panel of 468 kinases [6] = molecular target: T6, panel of 468 kinases (Homo sapiens, UniProt Q96L34); conditions: MARK4; 1 μM; read-out: % control
T6 construct: purchased KINOMEscan (ScanMAX) service
T6 sequence (Q96L34 1-752): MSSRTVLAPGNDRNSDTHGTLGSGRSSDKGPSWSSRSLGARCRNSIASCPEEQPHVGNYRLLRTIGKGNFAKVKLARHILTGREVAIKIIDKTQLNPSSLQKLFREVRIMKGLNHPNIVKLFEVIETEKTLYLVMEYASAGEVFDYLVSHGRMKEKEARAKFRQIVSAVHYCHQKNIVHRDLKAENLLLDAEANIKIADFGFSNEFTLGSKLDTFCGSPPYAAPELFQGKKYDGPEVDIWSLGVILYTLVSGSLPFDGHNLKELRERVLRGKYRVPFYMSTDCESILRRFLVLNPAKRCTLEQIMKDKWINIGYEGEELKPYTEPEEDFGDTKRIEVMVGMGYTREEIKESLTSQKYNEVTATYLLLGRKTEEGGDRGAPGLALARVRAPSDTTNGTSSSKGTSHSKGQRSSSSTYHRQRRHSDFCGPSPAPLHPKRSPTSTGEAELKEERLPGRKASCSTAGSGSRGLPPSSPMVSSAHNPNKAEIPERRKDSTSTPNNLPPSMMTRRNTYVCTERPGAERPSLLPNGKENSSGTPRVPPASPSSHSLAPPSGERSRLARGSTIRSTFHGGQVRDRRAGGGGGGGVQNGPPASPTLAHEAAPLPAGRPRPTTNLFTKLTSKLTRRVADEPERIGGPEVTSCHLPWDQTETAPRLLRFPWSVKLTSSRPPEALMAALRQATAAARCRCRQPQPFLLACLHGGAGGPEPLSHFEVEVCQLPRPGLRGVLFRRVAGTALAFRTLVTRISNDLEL

panel of 468 kinases [7] = molecular target: T7, panel of 468 kinases (Homo sapiens, UniProt Q9NQU5); conditions: PAK6; 1 μM; read-out: % control
T7 construct: purchased KINOMEscan (ScanMAX) service
T7 sequence (Q9NQU5 whole entry): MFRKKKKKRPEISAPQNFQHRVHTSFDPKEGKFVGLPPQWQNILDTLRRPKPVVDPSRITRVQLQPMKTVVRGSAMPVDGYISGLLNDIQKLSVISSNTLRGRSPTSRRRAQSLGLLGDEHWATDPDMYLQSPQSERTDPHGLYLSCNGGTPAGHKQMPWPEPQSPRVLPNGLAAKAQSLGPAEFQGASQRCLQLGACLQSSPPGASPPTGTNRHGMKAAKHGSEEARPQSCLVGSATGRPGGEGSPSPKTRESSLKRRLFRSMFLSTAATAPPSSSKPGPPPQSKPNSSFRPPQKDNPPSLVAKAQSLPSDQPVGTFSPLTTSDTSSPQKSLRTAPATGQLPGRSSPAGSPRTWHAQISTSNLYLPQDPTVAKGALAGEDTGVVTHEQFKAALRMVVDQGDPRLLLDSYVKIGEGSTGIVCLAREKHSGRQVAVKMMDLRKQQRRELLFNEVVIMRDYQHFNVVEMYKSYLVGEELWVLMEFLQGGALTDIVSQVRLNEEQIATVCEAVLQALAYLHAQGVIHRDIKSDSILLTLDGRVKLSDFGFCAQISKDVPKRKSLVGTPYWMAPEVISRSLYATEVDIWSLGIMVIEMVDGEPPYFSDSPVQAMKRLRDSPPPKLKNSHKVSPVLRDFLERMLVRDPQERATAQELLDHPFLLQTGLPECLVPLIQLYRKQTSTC

T1 sequence (P00519 whole entry F317L): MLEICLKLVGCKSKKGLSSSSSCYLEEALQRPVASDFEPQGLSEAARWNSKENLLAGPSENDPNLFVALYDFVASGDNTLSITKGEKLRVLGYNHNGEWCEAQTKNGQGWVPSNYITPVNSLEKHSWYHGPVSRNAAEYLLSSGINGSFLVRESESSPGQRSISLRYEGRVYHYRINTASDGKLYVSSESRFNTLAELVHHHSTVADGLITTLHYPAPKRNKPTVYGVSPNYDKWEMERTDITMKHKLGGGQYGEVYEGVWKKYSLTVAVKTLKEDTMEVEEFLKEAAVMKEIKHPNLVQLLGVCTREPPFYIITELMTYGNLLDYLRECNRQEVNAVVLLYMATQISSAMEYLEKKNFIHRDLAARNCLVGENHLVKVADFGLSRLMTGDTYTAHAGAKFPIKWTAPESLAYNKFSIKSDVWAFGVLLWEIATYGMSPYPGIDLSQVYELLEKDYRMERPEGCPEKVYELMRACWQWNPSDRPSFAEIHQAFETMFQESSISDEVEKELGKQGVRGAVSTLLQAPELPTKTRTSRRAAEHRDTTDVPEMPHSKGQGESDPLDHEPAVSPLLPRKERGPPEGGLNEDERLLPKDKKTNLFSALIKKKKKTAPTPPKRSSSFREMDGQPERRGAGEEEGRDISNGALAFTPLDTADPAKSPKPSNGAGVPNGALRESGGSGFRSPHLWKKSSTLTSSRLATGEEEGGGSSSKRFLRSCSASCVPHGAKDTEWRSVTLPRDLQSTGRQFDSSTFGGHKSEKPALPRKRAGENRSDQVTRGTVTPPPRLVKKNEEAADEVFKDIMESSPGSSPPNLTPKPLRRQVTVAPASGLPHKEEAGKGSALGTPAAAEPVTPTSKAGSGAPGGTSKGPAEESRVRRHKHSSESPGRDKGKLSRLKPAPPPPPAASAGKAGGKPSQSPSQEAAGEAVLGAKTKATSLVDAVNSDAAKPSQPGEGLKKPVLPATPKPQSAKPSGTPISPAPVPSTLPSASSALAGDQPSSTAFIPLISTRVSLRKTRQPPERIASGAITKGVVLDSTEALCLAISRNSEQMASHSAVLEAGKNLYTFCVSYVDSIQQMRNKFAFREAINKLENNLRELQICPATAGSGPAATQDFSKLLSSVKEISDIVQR

`CNc1nc(Nc2ccc(S(=O)(=O)N3CCC(N4CCOCC4)CC3)cc2OC)nc2[nH]cc(Cl)c12` [Compound 12, 5-chloro-N2-(2-methoxy-4-((4-morpholinopiperidin-1-yl)sulfonyl)phenyl)-N4-methyl-7H-pyrrolo[2,3-d]pyrimidine-2,4-diamine] was tested, and the remaining binding at 1 µM (panel of 468 kinases [1]; ABL1(F317L)-nonphosphorylated) was 100%, the remaining binding at 1 µM (panel of 468 kinases [1]; ABL1(F317L)-phosphorylated) was 70% and the remaining binding at 1 µM (panel of 468 kinases [2]) was 100%. It also gave a remaining binding at 1 µM (panel of 468 kinases [3]) of 80%, a remaining binding at 1 µM (panel of 468 kinases [4]) of 100% and a remaining binding at 1 µM (panel of 468 kinases [5]) of 100%. For the same molecule, the remaining binding at 1 µM (panel of 468 kinases [6]) was 98% and the remaining binding at 1 µM (panel of 468 kinases [7]) was 100%.

With `CNc1nc(Nc2ccc(C(=O)N3CCC(N4CCOCC4)CC3)c3c2OCO3)nc2[nH]cc(Cl)c12` [Compound 75, (7-((5-chloro-4-(methylamino)-7H-pyrrolo[2,3-d]pyrimidin-2-yl)amino)benzo[d][1,3]dioxol-4-yl)(4-morpholinopiperidin-1-yl)methanone] the remaining binding at 1 µM (panel of 468 kinases [1]; ABL1(F317L)-nonphosphorylated) was 100%, the remaining binding at 1 µM (panel of 468 kinases [1]; ABL1(F317L)-phosphorylated) was 47% and the remaining binding at 1 µM (panel of 468 kinases [2]) was 81%. The remaining binding at 1 µM (panel of 468 kinases [3]) was 39%, the remaining binding at 1 µM (panel of 468 kinases [4]) was 100% and the remaining binding at 1 µM (panel of 468 kinases [5]) was 100%. The remaining binding at 1 µM (panel of 468 kinases [6]) was 96% and the remaining binding at 1 µM (panel of 468 kinases [7]) was 100%.

`CNc1nc(Nc2ccc(P3(=O)CCN(C4CCOCC4)CC3)cc2OC)nc2[nH]cc(Cl)c12` [Compound 77, 4-(4-((5-chloro-4-(methylamino)-7H-pyrrolo[2,3-d]pyrimidin-2-yl)amino)-3-methoxyphenyl)-1-(tetrahydro-2H-pyran-4-yl)-1,4-azaphosphinane 4-oxide] showed a remaining binding at 1 µM (panel of 468 kinases [1]; ABL1(F317L)-nonphosphorylated) of 100%, a remaining binding at 1 µM (panel of 468 kinases [1]; ABL1(F317L)-phosphorylated) of 54% and a remaining binding at 1 µM (panel of 468 kinases [2]) of 80%. It also gave a remaining binding at 1 µM (panel of 468 kinases [3]) of 90%, a remaining binding at 1 µM (panel of 468 kinases [4]) of 100% and a remaining binding at 1 µM (panel of 468 kinases [5]) of 100%. It also gave a remaining binding at 1 µM (panel of 468 kinases [6]) of 97% and a remaining binding at 1 µM (panel of 468 kinases [7]) of 95%.

From patent US12479847B2 (DANA-FARBER CANCER INSTITUTE, INC., priority 2019, dated 2025)
